Assay results published in PMC11576293, “New series of 4,6-diaryl pyrimidines: facile synthesis and antiproliferative activity as dual EGFR/VEGFR-2 inhibitors” (Frontiers in Chemistry, 2024).

Key:
Format in all cases: cell-based
SN12C = test: NCI-60 single-dose screen; details: Homo sapiens, single dose 10 µM, '-' = no inhibition, read-out: % Growth Inhibition
Outline: (§1)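 The NCI Developmental Therapeutics Program exposed each of 60 cancer cell lines, drawn from leukemia, lung, colon, CNS, melanoma, ovarian, renal, prostate and breast origins, to one concentration of compound (10 μM).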

PC-3 = test: NCI-60 single-dose screen; details: Homo sapiens, single dose 10 µM, '-' = no inhibition, read-out: % Growth Inhibition
Outline: as §1

MCF7 = test: NCI-60 single-dose screen; details: Homo sapiens, single dose 10 µM, '-' = no inhibition, read-out: % Growth Inhibition
Outline: as §1

MDA-MB231/ATCC = test: NCI-60 single-dose screen; details: Homo sapiens, MDA-MB-231, single dose 10 µM, '-' = no inhibition, read-out: % Growth Inhibition
Outline: as §1

SR = test: NCI-60 single-dose screen; details: Homo sapiens, single dose 10 µM, '-' = no inhibition, read-out: % Growth Inhibition
Outline: as §1

OVCAR-8 = test: NCI-60 single-dose screen; details: Homo sapiens, single dose 10 µM, '-' = no inhibition, read-out: % Growth Inhibition
Outline: as §1

RXF 393 = test: NCI-60 single-dose screen; details: Homo sapiens, single dose 10 µM, '-' = no inhibition, read-out: % Growth Inhibition
Outline: as §1

COLO 205 = test: NCI-60 single-dose screen; details: Homo sapiens, single dose 10 µM, '-' = no inhibition, read-out: % Growth Inhibition
Outline: as §1

HOP-92 = test: NCI-60 single-dose screen; details: Homo sapiens, single dose 10 µM, '-' = no inhibition, read-out: % Growth Inhibition
Outline: as §1

HS 578T = test: NCI-60 single-dose screen; details: Homo sapiens, single dose 10 µM, '-' = no inhibition, read-out: % Growth Inhibition
Outline: as §1

UACC-257 = test: NCI-60 single-dose screen; details: Homo sapiens, single dose 10 µM, '-' = no inhibition, read-out: % Growth Inhibition
Outline: as §1

EKVX = test: NCI-60 single-dose screen; details: Homo sapiens, single dose 10 µM, '-' = no inhibition, read-out: % Growth Inhibition
Outline: as §1

A549/ATCC = test: NCI-60 single-dose screen; details: Homo sapiens, single dose 10 µM, '-' = no inhibition, read-out: % Growth Inhibition
Outline: as §1

NCI/ADR-RES = test: NCI-60 single-dose screen; details: Homo sapiens, single dose 10 µM, '-' = no inhibition, read-out: % Growth Inhibition
Outline: as §1

SNB-19 = test: NCI-60 single-dose screen; details: Homo sapiens, single dose 10 µM, '-' = no inhibition, read-out: % Growth Inhibition
Outline: as §1

RPMI-8226 = test: NCI-60 single-dose screen; details: Homo sapiens, single dose 10 µM, '-' = no inhibition, read-out: % Growth Inhibition
Outline: as §1

IGROV1 = test: NCI-60 single-dose screen; details: Homo sapiens, IGROV-1, single dose 10 µM, '-' = no inhibition, read-out: % Growth Inhibition
Outline: as §1

SNB-75 = test: NCI-60 single-dose screen; details: Homo sapiens, single dose 10 µM, '-' = no inhibition, read-out: % Growth Inhibition
Outline: as §1

BT-549 = test: NCI-60 single-dose screen; details: Homo sapiens, single dose 10 µM, '-' = no inhibition, read-out: % Growth Inhibition
Outline: as §1

UO-31 = test: NCI-60 single-dose screen; details: Homo sapiens, single dose 10 µM, '-' = no inhibition, read-out: % Growth Inhibition
Outline: as §1

MALME-3M = test: NCI-60 single-dose screen; details: Homo sapiens, single dose 10 µM, '-' = no inhibition, read-out: % Growth Inhibition
Outline: as §1

SF-539 = test: NCI-60 single-dose screen; details: Homo sapiens, single dose 10 µM, '-' = no inhibition, read-out: % Growth Inhibition
Outline: as §1

HCT-116 = test: NCI-60 single-dose screen; details: Homo sapiens, single dose 10 µM, '-' = no inhibition, read-out: % Growth Inhibition
Outline: as §1

OVCAR-3 = test: NCI-60 single-dose screen; details: Homo sapiens, single dose 10 µM, '-' = no inhibition, read-out: % Growth Inhibition
Outline: as §1

MDA-MB-435 = test: NCI-60 single-dose screen; details: Homo sapiens, single dose 10 µM, '-' = no inhibition, read-out: % Growth Inhibition
Outline: as §1

[1] = Cell viability assay (MTT) on normal cells; details: human, MCF-10A normal mammary gland epithelial cells, 4 days incubation
[2] = tested on: four cancer cell lines (A-549, MCF-7, Panc-1, HT-29); test: Antiproliferative assay, average over four cancer cell lines; details: Homo sapiens; average of the four cancer cell lines; read-out: Average IC50 (GI50)
Description: Table 2 presents the four cancer cell lines’ median inhibitory concentration (IC50) and GI50 (average IC50) values.
The IC50 values were derived from dose-response tests. The reported data are derived from at least two independent studies, each comprising three replicates per concentration. See Supplementary Material A1 for more details.

COc1ccc(-c2cc(-c3ccc(Cl)cc3)nc(SC)n2)cc1OC [Compound 23, 4-(4-Chlorophenyl)-6-(3,4-dimethoxyphenyl)-2-(methylthio)pyrimidine]
inhibition at 10 µM (SN12C): 20.2%
inhibition at 10 µM (PC-3): 15.7%
inhibition at 10 µM (MCF7): 23.9%
inhibition at 10 µM (MDA-MB231/ATCC): 23.2%
inhibition at 10 µM (SR): 34%
inhibition at 10 µM (OVCAR-8): 3.78%
inhibition at 10 µM (RXF 393): < 0%
inhibition at 10 µM (COLO 205): 8.14%
inhibition at 10 µM (HOP-92): < 0%
inhibition at 10 µM (HS 578T): 17%
inhibition at 10 µM (UACC-257): 10%
inhibition at 10 µM (EKVX): 23.1%
inhibition at 10 µM (A549/ATCC): 19.8%
inhibition at 10 µM (NCI/ADR-RES): 14.9%
inhibition at 10 µM (SNB-19): 3.67%
inhibition at 10 µM (RPMI-8226): 20.1%
inhibition at 10 µM (IGROV1): < 0%
inhibition at 10 µM (SNB-75): < 0%
inhibition at 10 µM (BT-549): 4.8%
inhibition at 10 µM (UO-31): 22.9%
inhibition at 10 µM (MALME-3M): < 0%
inhibition at 10 µM (SF-539): 15.7%
inhibition at 10 µM (HCT-116): 33.7%
inhibition at 10 µM (OVCAR-3): < 0%
inhibition at 10 µM (MDA-MB-435): 18%
viability at 4 days, 50 µM [1]: 90%
IC50 [2]: 48 nM

COc1ccc(-c2cc(-c3ccc(Cl)cc3)nc(SC(C)C)n2)cc1 [Compound 12, 4-(4-Chlorophenyl)-2-(isopropylthio)-6-(4-methoxyphenyl)pyrimidine]
inhibition at 10 µM (SN12C): 19.8%
inhibition at 10 µM (PC-3): 2.88%
inhibition at 10 µM (MCF7): 28.8%
inhibition at 10 µM (MDA-MB231/ATCC): 4.87%
inhibition at 10 µM (SR): 47.1%
inhibition at 10 µM (OVCAR-8): 11.3%
inhibition at 10 µM (RXF 393): 26.4%
inhibition at 10 µM (COLO 205): < 0%
inhibition at 10 µM (HOP-92): < 0%
inhibition at 10 µM (HS 578T): < 0%
inhibition at 10 µM (UACC-257): 4.1%
inhibition at 10 µM (EKVX): 16.8%
inhibition at 10 µM (A549/ATCC): 15.9%
inhibition at 10 µM (NCI/ADR-RES): 11.2%
inhibition at 10 µM (SNB-19): 1.49%
inhibition at 10 µM (RPMI-8226): 26.7%
inhibition at 10 µM (IGROV1): < 0%
inhibition at 10 µM (SNB-75): < 0%
inhibition at 10 µM (BT-549): 2.74%
inhibition at 10 µM (UO-31): 15.7%
inhibition at 10 µM (MALME-3M): 1.51%
inhibition at 10 µM (SF-539): 6.88%
inhibition at 10 µM (HCT-116): 19.6%
inhibition at 10 µM (OVCAR-3): < 0%
inhibition at 10 µM (MDA-MB-435): 8.92%
viability at 4 days, 50 µM [1]: 89%
IC50 [2]: 36 nM

C=CCSc1nc(-c2ccc(OC)cc2)cc(-c2cccc(OC)c2)n1 [Compound 20, 2-(Allylthio)-6-(3-methoxyphenyl)-4-(4-methoxyphenyl)pyrimidine]
inhibition at 10 µM (SN12C): 6.16%
inhibition at 10 µM (PC-3): < 0%
inhibition at 10 µM (MCF7): 12.5%
inhibition at 10 µM (MDA-MB231/ATCC): < 0%
inhibition at 10 µM (SR): 13%
inhibition at 10 µM (OVCAR-8): 0.92%
inhibition at 10 µM (RXF 393): < 0%
inhibition at 10 µM (COLO 205): < 0%
inhibition at 10 µM (HOP-92): < 0%
inhibition at 10 µM (HS 578T): < 0%
inhibition at 10 µM (UACC-257): < 0%
inhibition at 10 µM (EKVX): 4.8%
inhibition at 10 µM (A549/ATCC): 1.93%
inhibition at 10 µM (NCI/ADR-RES): < 0%
inhibition at 10 µM (SNB-19): 5.77%
inhibition at 10 µM (RPMI-8226): 4.53%
inhibition at 10 µM (IGROV1): < 0%
inhibition at 10 µM (SNB-75): < 0%
inhibition at 10 µM (BT-549): < 0%
inhibition at 10 µM (UO-31): 13.2%
inhibition at 10 µM (MALME-3M): < 0%
inhibition at 10 µM (SF-539): < 0%
inhibition at 10 µM (HCT-116): 5.47%
inhibition at 10 µM (OVCAR-3): < 0%
inhibition at 10 µM (MDA-MB-435): 1.82%
viability at 4 days, 50 µM [1]: 90%
IC50 [2]: 71 nM

COc1ccc(CSc2nc(-c3ccc(Cl)cc3)cc(-c3ccc(OC)cc3)n2)cc1 [Compound 15, 2-(4-Methoxybenzylthio)-4-(4-chlorophenyl)-6-(4-methoxyphenyl)pyrimidine]
inhibition at 10 µM (SN12C): 11.3%
inhibition at 10 µM (PC-3): 17.5%
inhibition at 10 µM (MCF7): < 0%
inhibition at 10 µM (MDA-MB231/ATCC): < 0%
inhibition at 10 µM (SR): 8.9%
inhibition at 10 µM (OVCAR-8): 1.69%
inhibition at 10 µM (RXF 393): < 0%
inhibition at 10 µM (COLO 205): 2.89%
inhibition at 10 µM (HOP-92): < 0%
inhibition at 10 µM (HS 578T): 9.27%
inhibition at 10 µM (UACC-257): < 0%
inhibition at 10 µM (EKVX): < 0%
inhibition at 10 µM (A549/ATCC): < 0%
inhibition at 10 µM (NCI/ADR-RES): < 0%
inhibition at 10 µM (SNB-19): < 0%
inhibition at 10 µM (RPMI-8226): < 0%
inhibition at 10 µM (IGROV1): < 0%
inhibition at 10 µM (SNB-75): < 0%
inhibition at 10 µM (BT-549): < 0%
inhibition at 10 µM (UO-31): < 0%
inhibition at 10 µM (MALME-3M): < 0%
inhibition at 10 µM (SF-539): < 0%
inhibition at 10 µM (HCT-116): < 0%
inhibition at 10 µM (OVCAR-3): 5.05%
inhibition at 10 µM (MDA-MB-435): 2.38%
viability at 4 days, 50 µM [1]: 91%
IC50 [2]: 80 nM

CCCSc1nc(-c2ccc(OC)cc2)cc(-c2cccc(OC)c2)n1 [Compound 18, 6-(3-Methoxyphenyl)-4-(4-methoxyphenyl)-2-(propylthio)pyrimidine]
inhibition at 10 µM (SN12C): < 0%
inhibition at 10 µM (PC-3): < 0%
inhibition at 10 µM (MCF7): 17.3%
inhibition at 10 µM (MDA-MB231/ATCC): < 0%
inhibition at 10 µM (SR): 14.9%
inhibition at 10 µM (OVCAR-8): < 0%
inhibition at 10 µM (RXF 393): < 0%
inhibition at 10 µM (COLO 205): 0.86%
inhibition at 10 µM (HOP-92): < 0%
inhibition at 10 µM (HS 578T): < 0%
inhibition at 10 µM (UACC-257): < 0%
inhibition at 10 µM (EKVX): < 0%
inhibition at 10 µM (A549/ATCC): 7.77%
inhibition at 10 µM (NCI/ADR-RES): < 0%
inhibition at 10 µM (SNB-19): < 0%
inhibition at 10 µM (RPMI-8226): < 0%
inhibition at 10 µM (IGROV1): < 0%
inhibition at 10 µM (SNB-75): < 0%
inhibition at 10 µM (BT-549): < 0%
inhibition at 10 µM (UO-31): < 0%
inhibition at 10 µM (MALME-3M): < 0%
inhibition at 10 µM (SF-539): < 0%
inhibition at 10 µM (HCT-116): 3.37%
inhibition at 10 µM (OVCAR-3): < 0%
inhibition at 10 µM (MDA-MB-435): 5.12%
viability at 4 days, 50 µM [1]: 87%
IC50 [2]: 45 nM
